Results on 6 molecules are retold here after patent US20070298026A1, “Methods for Identifying Treatment and Inducing Infertility Using Smc1-Beta” (MOUNT SINAI SCHOOL OF MEDICINE Office of Industrial Liaison, priority 2003, published 2007).

“Also recorded” adds a separate entry of the source.

In assay [1] the test system is type A spermatogonial cells. The conditions noted are these: cited from earlier work.
The next assay addresses T1, human PEP (Homo sapiens, UniProt P48147).
T1 sequence (P48147 1-710): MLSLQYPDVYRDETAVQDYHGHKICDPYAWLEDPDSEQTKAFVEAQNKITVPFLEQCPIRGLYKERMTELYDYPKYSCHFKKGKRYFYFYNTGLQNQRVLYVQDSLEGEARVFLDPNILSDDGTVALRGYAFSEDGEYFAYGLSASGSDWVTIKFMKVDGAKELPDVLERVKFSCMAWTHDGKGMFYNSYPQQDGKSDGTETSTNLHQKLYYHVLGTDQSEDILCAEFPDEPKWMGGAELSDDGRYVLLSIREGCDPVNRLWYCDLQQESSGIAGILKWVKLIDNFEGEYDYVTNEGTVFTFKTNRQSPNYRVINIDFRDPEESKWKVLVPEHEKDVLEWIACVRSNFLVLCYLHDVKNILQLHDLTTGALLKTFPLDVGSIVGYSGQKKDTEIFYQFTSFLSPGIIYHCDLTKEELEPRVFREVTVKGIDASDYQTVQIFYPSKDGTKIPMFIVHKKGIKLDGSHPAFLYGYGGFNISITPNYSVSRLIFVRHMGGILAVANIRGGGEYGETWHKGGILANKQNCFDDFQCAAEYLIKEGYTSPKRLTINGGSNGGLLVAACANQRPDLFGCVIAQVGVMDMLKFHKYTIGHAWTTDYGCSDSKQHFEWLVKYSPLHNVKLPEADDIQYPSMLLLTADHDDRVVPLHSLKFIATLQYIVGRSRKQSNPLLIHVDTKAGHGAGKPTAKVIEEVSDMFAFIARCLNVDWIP
The conditions noted are these: inhibitor from Calbiochem Inc.; cited from earlier work.

The test system of a further assay is spermatocytes. In words: Okadaic acid-induced premature transition of cultured spermatocytes into metaphase I. The conditions noted are these: wildtype mouse spermatocytes; 5 μM okadaic acid for 5 h. The assay is classed as cell-based. An excerpt:
As a result, 20 bivalents, each with two pairs of unseparated, closely apposed sister kinetochores and at least one chiasma became visible. […] Co-staining for γ-H2AX, which decreases from zygotene to pachytene, allowed for determination of the stage at which the cells were exposed to OA. Cells with 80 centromere signals were of pachytene origin (no γ-H2AX), and cells with 40 centromere signals were of zygotene origin (patchy γ-H2AX).
Most antibodies used have been described (Eijpe et al., supra, 2000; Revenkova et al., supra, 2001; and 14. Eijpe et al., J. Cell Biol. 3,.657-670, 2003). Mouse anti-MLH1 was from BDPharMingen, rabbit-antiMLH1 from Calbiochem, and rabbit anti-SMC1α from Bethyl Labs Inc. Mouse anti-γH2AX was donated by A. Pastink, rabbit anti-SMC3 by J. -M. Peters, rabbit anti-RAP1 by T. de Lange, mouse anti-ATR by P. de Boer, mouse anti-MLH3 by P. Cohen, and goat anti-rat SCP3 by T. Ashley. Paraffin and frozen sections of mouse testis, and dry-down preparations of testis cell suspensions were prepared, incubated for immunocytochemistry and analyzed as described (Eijpe et al., supra, 2000;, Revenkova et al., supra, 2001; Eijpe et al., J. Cell Biol. 3, 657-670, 2003; Peters et al., Chromosome Res. 5:66-68, 1997). Mice were labeled in vivo with BrdU, and detected -the incorporated BrdU in sections and dry-down preparations as described before (Eijpe et al, supra, 2003). […]

The next assay concerns SMC1β. In words: SMC1β proteolysis/degradation assay in testis nuclear extracts (immunoblot). The assay is classed as biochemical, mouse. The conditions noted are these: for effect of added SMC1β protein fragment on degradation of SMC1β: increasing amounts of fragment added to testis nuclear extract, anti-SMC1β immunoblot. An excerpt: It is very likely, that phosphorylation and/or protein degradation play an important role in regulating the removal of SMC1β and its complex from meiotic chromosomes. Understanding this mechanism would fill a significant gap in our knowledge of the meiotic process and of regulation of SMC1β function. It is unlikely that association and dissociation of cohesins are regulated exclusively through Rec8, because Rec8 behaves differently from SMC1β and SMC3 (Eijpe et al., J. Cell Biol. 160:657-670,2003; and see below). As a first approach to address this question, a series of proteolysis assays were undertaken. In these assays, nuclear extracts from mouse testis were incubated under various conditions and investigated the intactness of SMC1β by immunoblotting.
To begin testing the effect of phosphorylation, nuclear extracts were prepared in the presence or absence of general phosphatase inhibitors (1 mM o-vanadate, 10 mM β-glycerophosphate). If a phosphorylated SMC1β is more prone to degradation, inhibited dephosphorylation should stimulate degradation. […] The effect of phosphatase inhibition can either be direct—on SMC1β phosphorylation—or indirect, i.e. on maintaining an activated state of the protease or of a regulator of the protease. The mechanism of phosphatase inhibition and the identification of enzymes that are involved are currently being examined.
Speculating that the 120-kDa product seen in degradation assays is a true intermediate of SMC1β degradation, two fragments of SMC1β that span either one of the two putative regions of cleavage, positioned at about 30 kDa distance from each of the termini, were subcloned and expressed in E. coli. Thus, an N-terminal or a C-terminal polypeptide of 33 or 35 kDa, respectively, was expressed and purified. While the N-terminal fragment was purified to near homogeneity (100 mM imidazole fraction), there were one major and a few minor contaminants in the C-terminal fragment preparation. The putative region of cleavage was identified at the center of these polypeptides (N-terminal fragment: amino acids 174 to 420; C-terminal fragment: amino acids 820 to 1073). These proteins were used in cleavage inhibition assays. […] Thus, there is early evidence for a cleavage site within the N-terminal region between amino acids 174 and 420, and the precise cleavage site is being determined.
In attempts to identify the protease cleavage site within SMC1β, N-terminal and C-terminal protein fragments of SMC1β were purified in increasing concentrations of imidazole in elution buffer and run on silver-stained SDS polyacrylamide gels. To assay degradation, increasing amounts of N- or C-terminal protein fragments were then added to a reaction containing extract incubated with and without competitor. Reactions were then separated eletrophoretically on SDS polyacrylamide gels, immunoblotted, and probed with anti-SMC1β antibody. […] Cleavage of the N-terminal fragment itself is currently being investigated.
In general terms: Immunoblotting shows a protein as a band on a membrane.

The test system of another assay is Rec8 or STAG3. Nature of the assay: Degradation of other cohesin subunits in testis nuclear extracts. The assay is classed as biochemical, mouse. The conditions noted are these: ATP added to testis nuclear extract.

Turning to “stem cell factor: stem cell factor (SCF; kit ligand) added to induce meiosis in spermatogonial cultures”, the “cells that are 4N” value in assay [1] (after 1 week of induction) is given as 40%. Besides, the “total cell population that is haploid” value in assay [1] (after 3 weeks of induction) is 58%.

One may read the Ki as the equilibrium dissociation constant of an inhibitor or competing ligand from its target. As for `CC(C)(C)OC(=O)NC(CCC(=O)NOC(=O)c1ccccc1)C(=O)N1CCCC1` (stereo not shown) [Boc-Glu(NHO-Bz)-Pyr], the inhibitory constant (Ki) on human PEP was 0.03 µM.

`C=C1[C@@H](O)[C@@H]2O[C@]3(CC[C@H](/C=C/[C@@H](C)[C@@H]4CC(C)=C[C@@]5(O[C@H](C[C@@](C)(O)C(=O)O)CC[C@H]5O)O4)O3)CC[C@H]2O[C@@H]1[C@@H](O)C[C@H](C)[C@H]1O[C@@]2(CCCCO2)CC[C@H]1C` [OA, okadaic acid]: the “effect on chromosome condensation and cohesion” value in the assay with spermatocytes was “caused premature chromosome condensation from mid-pachytene on, without affecting sister chromatid arm and centromere cohesion”. With `Nc1ncnc2c1ncn2[C@@H]1O[C@H](COP(=O)(O)OP(=O)(O)OP(=O)(O)O)[C@@H](O)[C@H]1O` [ATP], the “effect of ATP on SMC1β degradation” value in the assay on SMC1β (ATP added to testis nuclear extract) was “increased the efficiency of the reaction; also recorded: stimulates SMC1β degradation”. In addition, the “effect of ATP on degradation of Rec8 or STAG3” value in the assay with Rec8 or STAG3 was “not enhanced by addition of ATP, but rather inhibited”.

B1: N-terminal protein: SMC1β N-terminal fragment, amino acids 174 to 420, 33 kDa polypeptide expressed in E. coli (protein, UniProt Q8NDV3 174-420, looked up, fragment)
chain: KLQKAEEDAQFNFNKKKNIAAERRQAKLEKEEAERYQSLLEELKMNKIQLQLFQLYHNEKKIHLLNTKLEHVNRDLSVKRESLSHHENIVKARKKEHGMLTRQLQQTEKELKSVETLLNQKRPQYIKAKENTSHHLKKLDVAKKSIKDSEKQCSKQEDDIKALETELADLDAAWRSFEKQIEEEILHKKRDIELEASQLDRYKELKEQVRKKVATMTQQLEKLQWEQKTDEERLAFEKRRHGEVQGN
B1: the “effect of added SMC1β protein fragment on degradation of SMC1β” value in the assay on SMC1β is “inhibited the degradation of SMC1β”; with SMC1β (listed as N-terminal 33-kDa fragment), “identified as an inhibitor to protease cleavage”; in the assay with SMC1β (listed as N-terminal peptide of SMC1β) it was “inhibited specifically”.

B2: C-terminal protein: SMC1β C-terminal fragment, amino acids 820 to 1073, 35 kDa polypeptide expressed in E. coli (protein, UniProt Q8NDV3 820-1073, looked up, fragment)
chain: QLEYSRSHLKKKLNKINTLKETIQKGSEDIDHLKKAEENCLQTVNELMAKQQQLKDIRVTQNSSAEKVQTQIEEERKKFLAVDREVGKLQKEVVSIQTSLEQKRLEKHNLLLDCKVQDIEIILLSGSLDDIIEVEMGTEAESTQATIDIYEKEEAFEIDYSSLKEDLKALQSDQEIEAHLRLLLQQVASQEDILLKTAAPNLRALENLKTVRDKFQESTDAFEASRKEARLCRQEFEQVKKRRYDLFTQCFEHV
As for B2, the “effect of added SMC1β protein fragment on degradation of SMC1β” value with SMC1β is “degradation was not affected”.
